Laboratory results published in patent US4876262A, “Piperidine derivative and pharmaceutical composition containing the same” (Eisai Co., Ltd., priority 1986, dated 1989).
Structures can show the parent of a compound that is named as a salt. Where two headings read alike, the source gives them in different places.

How the values were obtained:
[1] = system: anesthetized dogs (QTc-interval of ECG); assay: Effects of QTc-interval of ECG in anesthetized dogs; type: in vivo, Mongrel dogs; settings: forearm vein; for change in vivo at 1 mg/kg: 1 mg/kg (1.0 mg/kg)
[2] = system: isolated myocardium of guinea-pigs (right ventricular papillary muscles); assay: Effects on the action potential duration in the isolated myocardium of guinea-pigs; parameters: species or system guinea-pig (male, Hartley strain); settings: Cavia porcellus, 10 min; for activation at 10 µM / activation at 1 µM: read-out: APD90 prolongation; for inhibition at 10 µM / inhibition at 1 µM: read-out: Vmax inhibition
Description: Right ventricular papillary muscles were isolated from male guinea-pigs of Hartley strain weighing 300 to 400 g and fixed at the bottom of an acrylic bath with pins. […] The muscles were stimulated at 1 Hz with rectangular pulses of 1 msec duration and supramaximal voltage. Action potentials were recorded using conventional glass microelectrodes filled with 3M KCl. The duration of the action potential and the maximum velocity of the upstroke of the action potential (Vmax) were determined. Each of the test compounds was included in Tyrode solution at 10^-6 or 10^-5 M and perfused.
Sotalol, a beta-adrenoceptor antagonist was employed as the reference drug because this compound is known to prolong the duration of the myocardial action potential.

in vivo = settings: mouse, iv
Description: Male ddy mice weighing 20 to 30 g were used for the acute toxicity test. LD50 values were calculated by the up-and-down method. […] The dose to be administered was determined on the basis of the volume of the stock solution. The solutions were injected into a tail vein by means of a 1-ml tuberculin syringe. The judgement of survival or death was made 30 min after each injection.

[3] = Canis lupus familiaris, iv, 0.1 mg/kg, enflurane anesthesia, read-out: prolongation of QTc-interval
[4] = 10^-5 M, another 10 min after 10^-6 M, 1 Hz, 37° C.
[5] = 10^-6 M, first 10 min, 1 Hz, 37° C.
[6] = Canis lupus familiaris, iv, enflurane anesthesia, read-out: prolongation of QTc-interval

Row | Compound | change in vivo at 0.03 mg/kg ([1]; Canis lupus familiaris, iv, 0.03 mg/kg, enflurane anesthesia, read-out: prolongation of QTc-interval) | change in vivo at 0.1 mg/kg [1, 3] | activation at 10 µM [2, 4] | inhibition at 10 µM [2, 4] | activation at 1 µM [2, 5] | inhibition at 1 µM [2, 5] | LD50 at 0.5 h (in vivo) | change in vivo at 0.3 mg/kg [1, 6] | change in vivo at 1 mg/kg [1, 6] | QTc-interval after compound ([1]; 0.1 mg/kg, from 435 msec before) | activation at 1 µM [2] | activation at 10 µM [2] | inhibition at 1 µM [2] | inhibition at 10 µM [2]
1 | CS(=O)(=O)Nc1ccc(C(=O)C2CCN(CCCc3ccncc3)CC2)cc1.Cl.Cl [Compound R, 4-(4-methylsulfonylaminobenzoyl)-1-(3-(4-pyridyl)propyl)piperidine dihydrochloride] | 13% | 21% | 27% | 0% | 18% | 0% | 138 mg/kg | – | – | – | – | – | – | –
2 | CS(=O)(=O)Nc1ccc(C(=O)C2CCN(CCc3cccs3)CC2)cc1.CS(=O)(=O)O [Compound F, 4-(4-methylsulfonylaminobenzoyl)-1-[2-(2-thienyl)ethyl]piperidine methylsulfonate] | – | – | 11% | 0% | 8% | 0% | 112 mg/kg | – | – | – | – | – | – | –
3 | CS(=O)(=O)Nc1ccc(C(=O)C2CCN(Cc3ccc4ccccc4n3)CC2)cc1.Cl.Cl [Compound L, 4-(4-methylsulfonylaminobenzoyl)-1-(2-quinolylmethyl)piperidine dihydrochloride] | – | 31% | 26% | 2% | 18% | 0% | 112 mg/kg | 56% | – | – | – | – | – | –
4 | CS(=O)(=O)Nc1ccc(C(=O)C2CCN(Cc3ccccc3)CC2)cc1 [Compound A, 1-benzyl-4-(4-methylsulfonylaminobenzoyl)piperidine hydrochloride] | – | – | 7% | 0% | 0% | 0% | – | – | – | – | – | – | – | –
5 | CS(=O)(=O)Nc1ccc(C(=O)C2CCN(CCc3ccccn3)CC2)cc1 [Compound H, 4-(4-methylsulfonylaminobenzoyl)-1-[2-(2-pyridyl)ethyl]piperidine dihydrochloride] | – | – | 5% | 0% | 2% | 0% | – | – | – | – | – | – | – | –
6 | COc1ccc(CCN2CCC(C(=O)c3ccc(NS(C)(=O)=O)cc3)CC2)cc1OC [Compound E, 1-[2-(3,4-dimethoxyphenyl)ethyl]-4-(4-methylsulfonylaminobenzoyl)piperidine hydrochloride] | – | – | 14% | 0% | 12% | 0% | – | – | – | – | – | – | – | –
7 | CS(=O)(=O)Nc1ccc(C(=O)C2CCN(Cc3ccc4nccn4c3)CC2)cc1 [Compound Q, 1-(6-imidazo[1,2-a]pyridylmethyl)-4-(4-methylsulfonylaminobenzoyl)piperidine dihydrochloride] | – | – | 23% | 0% | 4% | 0% | – | – | – | – | – | – | – | –
8 | CS(=O)(=O)Nc1ccc(C(=O)C2CCN(CCc3ccc(Cl)cc3)CC2)cc1 [Compound C, 1-[2-(4-chlorophenyl)ethyl]-4-(4-methylsulfonylaminobenzoyl)piperidine hydrochloride] | – | – | 15% | 0% | 7% | 0% | – | – | – | – | – | – | – | –
9 | CS(=O)(=O)Nc1ccc(C(=O)C2CCN(CCc3cccnc3)CC2)cc1 [Compound I, 4-(4-methylsulfonylaminobenzoyl)-1-[2-(3-pyridyl)ethyl]piperidine dihydrochloride] | – | – | 17% | 0% | 10% | 0% | – | – | – | – | – | – | – | –
10 | CS(=O)(=O)Nc1ccc(C(=O)C2CCN(Cc3ccncc3)CC2)cc1.Cl.Cl [Compound G, 4-(4-methylsulfonylaminobenzoyl)-1-(4-pyridyl)methylpiperidine dihydrochloride] | – | 17% | 33% | 0% | 18% | 0% | 108 mg/kg | 27% | 35% | – | – | – | – | –
11 | CCN1CCC(C(=O)c2ccc(NS(C)(=O)=O)cc2)CC1 [Compound P, 1-ethyl-4-(4-methylsulfonylaminobenzoyl)piperidine hydrochloride] | – | 7% | 23% | 2% | 7% | 0% | – | 14% | – | – | – | – | – | –
12 | CS(=O)(=O)Nc1ccc(C(=O)C2CCN(C(=O)c3ccc(NS(C)(=O)=O)cc3)CC2)cc1 [Compound D, 1,4-di(4-methylsulfonylaminobenzoyl)piperidine hydrochloride] | – | – | 10% | 0% | 3% | 0% | – | – | – | – | – | – | – | –
13 | CS(=O)(=O)Nc1ccc(C(=O)C2CCN(C(=O)c3cccnc3)CC2)cc1 [Compound K, 4-(4-methylsulfonylaminobenzoyl)-1-nicotinoylpiperidine] | – | – | 24% | 14% | 9% | 0% | – | – | – | – | – | – | – | –
14 | CS(=O)(=O)Nc1ccc(C(=O)C2CCN(CCc3ccncc3)CC2)cc1.Cl.Cl [Compound J, 4-(4-methylsulfonylaminobenzoyl)-1-[2-(4-pyridyl)ethyl]piperidine dihydrochloride] | – | 21% | 10% | 0% | 4% | 0% | 195 mg/kg | 42% | – | – | – | – | – | –
15 | CC(C)NCC(O)c1ccc(NS(C)(=O)=O)cc1 (centres unmarked) [Sotalol, reference compound] | – | – | 7% | 0% | 0% | 0% | 113 mg/kg | – | 12% | – | – | – | – | –
16 | CS(=O)(=O)Nc1ccc(C(=O)C2CCN(Cc3cnc4ccccc4c3)CC2)cc1.Cl.Cl [Compound M, 4-(4-methylsulfonylaminobenzoyl)-1-(3-quinolylmethyl)piperidine dihydrochloride] | – | 7% | 5% | 0% | 3% | 0% | 112 mg/kg | 13% | 21% | – | – | – | – | –
17 | CS(=O)(=O)Nc1ccc(C(=O)C2CCN(Cc3cn4ccccc4n3)CC2)cc1 [Compound O, 1-(1-imidazo[1,2-a]pyridylmethyl)-4-(4-methylsulfonylaminobenzoyl)piperidine dihydrochloride] | – | – | 12% | 5% | 6% | 0% | 302 mg/kg | – | – | – | – | – | – | –
18 | CS(=O)(=O)Nc1ccc(C(=O)C2CCN(CCc3ccccc3)CC2)cc1.Cl [Compound B, 4-(4-methylsulfonylaminobenzoyl)-1-(2-phenylethyl)piperidine hydrochloride] | – | 51% | 34% | 19% | 26% | 0% | 100 mg/kg | – | – | 665 ms | – | – | – | –
19 | CS(=O)(=O)Nc1ccc(C(=O)C2CCN(CC(=O)c3cnc4ccccn34)CC2)cc1.Cl.Cl [Compound N, 1-[2-(3-imidazo[1,2-a]pyridyl)-2-oxo-ethyl]-4-(4-methylsulfonylaminobenzoyl)piperidine dihydrochloride] | – | – | 8% | 0% | 8% | 0% | 224 mg/kg | – | – | – | – | – | – | –
20 | Cc1cccc(CCN2CCC(C(=O)c3ccc(NS(C)(=O)=O)cc3)CC2)n1 [Compound S, 1-(2-(6-methyl-2-pyridyl)ethyl)-4-(4-methylsulfonylaminobenzoyl)piperidinedihydrochloride] | – | – | – | – | – | – | – | – | – | – | 20% | 30% | 0% | 0%
